# Entries after “also recorded” stand apart in the source; their conditions may differ.
# Assays:
# Format in all cases: cell-based
# [1] = test system: human pancreatic islets; assay: Aggregation of high-density pancreatic islets in culture (RCCS bioreactor or petri dish)
# Method: It is hypothesized that synthetic peptides containing the IKVAV peptide sequence (SEQ ID NO. 2) can inhibit the aggregation of islets cultures in the RCCS bioreactor. Experiments were performed to compare the aggregation of about 200-300 islets/ml cultured in the presence and absence of each peptide to be tested. Initial experiments added the peptide to the culture media in a small (10 ml) RCCS bioreactor vessel. It was realized that providing a large volume of culture media with sufficient concentrations of the PA22-2 peptide or another IKVAV-containing peptide component of laminin would be prohibitively expensive. Thus, the experimental protocol was altered as described below.
# (§1) In each sample, the islets were allowed to settle at 1×g in a sterile centrifuge tube. Once the islets had settled, the supernatant was removed and replaced with 2 ml of media. Control samples of islets (Samples 2 and 4) were placed in the control media (i.e., CMRL-1066 media containing 10% bovine serum, 1% penicillin/streptomycin/amphotericin B, and 2 mM glutamine) and experimental samples of islets (Samples 3 and 5) were incubated with the control media to which 50 μg/ml IKVAV-containing peptide such as the PA22-2 (SEQ ID NO. 1) peptide had been added. The IKVAV-containing peptides are hereinafter referred to as laminin A chain peptide. […]
# (§2) Samples 2 and 3 were transferred to standard culture dishes (petri dishes) at a cell density of approximately 200 islets/ml. […] After the Samples 2-5 had been cultured for 7 days, the islets were removed from the culture dish or RCCS bioreactor vessel and assessed for aggregation, apoptosis and ATP levels.
# An aliquot of islets from each sample was fixed by washing the islets two times in phosphate buffered saline (PBS) and then transferring the washed samples to a 4% paraformaldehyde solution for 2 hours to fix the islets. […] The islets were analyzed for their, degree of aggregation by digitizing ten microscopic fields and measuring the cross sectional areas of the islets within each field with the image processing program NIH Image. […]
# [2] = test system: human pancreatic islets; assay: H & E stained thin sections of cultured human islets; settings: preincubated with peptide, 7 days in RCCS bioreactor; compared with petri dish control
# Method: (§3) In each sample, the islets were allowed to settle at 1×g in a sterile centrifuge tube. Once the islets had settled, the supernatant was removed and replaced with 2 ml of media. Control samples of islets (Samples 2 and 4) were placed in the control media (i.e., CMRL-1066 media containing 10% bovine serum, 1% penicillin/streptomycin/amphotericin B, and 2 mM glutamine) and experimental samples of islets (Samples 3 and 5) were incubated with the control media to which 50 μg/ml IKVAV-containing peptide such as the PA22-2 (SEQ ID NO. 1) peptide had been added. The IKVAV-containing peptides are hereinafter referred to as laminin A chain peptide.
# (§4) All four samples were gently mixed and placed in a humidified incubator for 3 hours at 37° C. At half hour intervals, the tubes containing the samples were gently inverted to prevent aggregation of the islet pellet.
# (§5) Samples 2 and 3 were transferred to standard culture dishes (petri dishes) at a cell density of approximately 200 islets/ml. Samples 4 and 5 were transferred to 35 ml perfused RCCS bioreactor vessels at a cell density of approximately 200 islets/ml. All of the samples (Samples 2-5) were then cultured for 7 days. After the Samples 2-5 had been cultured for 7 days, the islets were removed from the culture dish or RCCS bioreactor vessel and assessed for aggregation, apoptosis and ATP levels. […]
# [3] = test system: caspase 3 activity in cultured human pancreatic islets; assay: Caspase 3 activity (apoptosis) in cultured human pancreatic islets
# Method: as §3, §4
# as §5, with “All of the samples (Samples 2-5) were then cultured for 7 days.” left out
# Fifty microliters of the lysed cell supernatant from each sample was transferred into a microplate well. […] The free rhodamine was measured by fluorescence (excitation/emission-496/520 nm). The fluorescence was quantitated using arbitrary fluorescence units derived by normalizing the rhodamine fluorescence to the quantity of DNA in the islet sample, which is directly proportional to cell number.
# Experiments were performed to compare islet caspase 3 activity in islets cultured in conventional petri dishes (labeled in FIG. 3 as Dish) with islets preincubated with the laminin A chain peptide PA22-2 and cultured in an RCCS bioreactor (labeled in FIG. 3 as RCCS+ laminin). […] The data from four experiments was analyzed by a one-way ANOVA. Differences between the groups were determined by the Student-Newman Keuls test.
# [4] = test system: human pancreatic islets; assay: ATP levels in cultured human pancreatic islets (luciferin/luciferase luminescence)
# Method: as §1, §2
# Islet ATP levels were measured by luciferin/luciferase luminescence. […] The cells were pelleted by centrifugation and 10 μl of the lysed cell supernatant was placed in a luminescence multiwell plate with 90 μl of reaction solution (25 mM Tricine pH 7.8, 5 mM MgSO4, 0.1 mM EDTA, 0.1 mM sodium azide with 0.5 mM lucifirin, 1 mM DTT and 12.5 μg of firefly luciferase). […]
# The data from four experiments was analyzed by a one-way ANOVA. […]
substance,measurement,setting,value
"CYS-SER-ARG-ALA-ARG-LYS-GLN-ALA-ALA-SER-ILE-LYS-VAL-ALA-VAL-SER-ALA-ASP-ARG (CSRARKQAASIKVAVSADR; laminin A chain) [PA22-2, 19 amino acid synthetic peptide containing residues 2091-2108 of the laminin A chain, IKVAV-containing]",aggregation inhibiting activity,"[1]; peptide added to RCCS-cultured islets, cell density about 200-300 islets/ml",showed substantial aggregation inhibiting activity
same,adherence of islets to petri dish,"[1]; peptide left in the media during the entire culture period, petri dish",caused the petri dish control islets to adhere to the non-stick petri dishes
same,degree of aggregation of islets,"[1]; preincubated 3 hours with 50 μg/ml peptide, then seven-day culture in RCCS bioreactor, compared with no peptide",lower degree of aggregation; also recorded: sufficient to prevent aggregation of the islets in the RCCS bioreactor; also recorded: beneficial in preventing islet aggregation
same,islet structure / membrane integrity (H & E thin sections),[2],maintained their membrane integrity and appeared to be healthy and viable
same,caspase 3 activity,"[3]; Dish+ laminin: preincubated 3 hours with 50 μg/ml peptide, 7 days petri dish, vs Dish control (100%), n=4",slightly lower caspase 3 activity but the values did not have a p value less than 0.05; also recorded: no significant effect on islet caspase 3 activity
same,caspase 3 activity,"[3]; RCCS+ laminin (Sample 5): preincubated 3 hours with 50 μg/ml peptide, 7 days RCCS, vs RCCS-cultured islets without peptide (Sample 4)",less caspase 3 activity than the RCCS-cultured islets of Sample 4
same,caspase 3 activity,"[3]; RCCS+ laminin: preincubated 3 hours with 50 μg/ml peptide, 7 days RCCS, vs Dish control, p<0.05, n=4",significantly less caspase 3 activity than did the dish-cultured islets
same,ATP levels,"[4]; RCCS+laminin (Sample 5): preincubated with peptide, 7 days RCCS, vs Dish control (Sample 2), p<0.05, n=4",significantly higher ATP levels
same,ATP levels,"[4]; Sample 3: preincubated 3 hours with 50 μg/ml peptide, 7 days petri dish, vs Dish control (100%), n=4",tended to have higher ATP levels but the values did not have a p value less than 0.05

# — patent publication US7507581B2, “Inhibition of pancreatic islet aggregation” (Synthecon, Inc., priority 2005, dated 2009)
